In publication PMC3684770 (Free Radical Biology & Medicine, 2013):
Where a name gives a salt, the structure may show the parent alone. Read-outs that look alike come from different tables or passages of the source.

Assays:
[1] = test system: 1321N1 astrocyte cell line; test: 1321N1 oxidative stress assay (serum withdrawal, DCF); conditions: for 1321N1 oxidative stress assay Max reduction: maximum % inhibition of DCF signal; for 1321N1 oxidative stress assay Toxic dose: minimum dose at which toxicity was observed; for Emax: 1321-N1, 24 h, read-out: 1321N1 oxidative stress assay Max reduction
Procedure: (§1) Media were then replaced with serum-free, phenol-free media for 5 h.

C6 astrocyte cell line = test: C6 oxidative stress assay (serum withdrawal, DCF); conditions: for C6 oxidative stress assay Max reduction: maximum % inhibition of DCF signal; for C6 oxidative stress assay Toxic dose: minimum dose at which toxicity was observed; for IC50: read-out: C6 oxidative stress assay IC50; for Emax: 24 h, read-out: C6 oxidative stress assay Max reduction
Procedure: as §1

Nrf2-ARE pathway = test: ARE reporter assay in CHO 4xARE-TK-GFP cells (Spectrum library hits); conditions: for Fold GFP induction: average fold over baseline at the maximal response, CHO cells; for Toxic dose: lowest dose at which a reduction in GFP fluorescence was observed
Procedure: The Z′ score was calculated as follows Z′=1−(3SD^++3SD^−)/(Ave^+–Ave^−) where SD^+ = standard deviation of positive control wells; SD^− = standard deviation of negative control wells; Ave^+ = average fluorescence reading of positive control wells; Ave^− = average fluorescence reading of negative control wells.
Media was removed by hand and replaced (1 compound/well) with the Spectrum library diluted to 10 μM in 0.1% DMSO using a Q-bot liquid handling system (Genetix, New Milton, UK). […] The TK-GFP CHO ARE cell line was screened twice in a single point assay and the control TK-GFP CHO cell line was screened once to eliminate false positives.
The compounds were applied in triplicate to confluent cells in 96 well plates in serum free medium for 24 hours and the induction of GFP measured in a fluorescence plate reader.
In order to screen the Spectrum collection of 2000 molecules the reporter assay was optimised in […]. To assess the suitability of the assay for library screening, a Z’ score calculation was performed by treating alternate wells with vehicle (0.1% DMSO) and 10 µM Ebselen as a positive control (see calculation in Methods). […] The library was subsequently screened at a single point concentration of 10µM for every compound. Drug library dilutions and plating were performed with a Q-BOT liquid handling system and both the 4xARE-TK-GFP reporter cell line and TK-GFP control cell line were tested for their response to the compounds. Hits were identified as having data points more than three standard deviations above the background level, which was the average value of 24 wells treated with vehicle (0.1% DMSO) only. Hit compounds were checked to see if they generated a response in the control cell line, for example by non-specific activation of transcription or autofluorescence. […] The library screen was repeated once in the 4xARE –TK-CHO cell line and compounds classed as hits in both screens were taken forward for further assessment.

NSC34 cells = test: NSC34 oxidative stress assay (serum withdrawal, DCF); conditions: for NSC34 oxidative stress assay Max reduction: maximum % inhibition of DCF signal, negative = prooxidant; for NSC34 oxidative stress assay Toxic dose: minimum dose at which toxicity was observed; for Emax: Mus musculus, NSC-34, 24 h, read-out: NSC34 oxidative stress assay Max reduction
Procedure: as §1

[2] = read-out: 1321N1 oxidative stress assay IC50, 24-h preconditioning, 6-h serum withdrawal, DCF fluorescence
[3] = Homo sapiens, 1321-N1, read-out: 1321N1 oxidative stress assay IC50

CC(=O)O[C@@H]1C[C@H]2C(C)(C)C(=O)C=C[C@]2(C)[C@H]2CC[C@]3(C)C(=CC(=O)O[C@H]3c3ccoc3)[C@@]21C [Deoxygedunin]
1321N1 oxidative stress assay Max reduction [1]: 25%
1321N1 oxidative stress assay Toxic dose [1]: 10 µM
IC50 [1, 2]: 1.41 µM
C6 oxidative stress assay Max reduction (C6 astrocyte cell line): 61%
C6 oxidative stress assay Toxic dose (C6 astrocyte cell line): none
IC50 (C6 astrocyte cell line; 24-h preconditioning, 6-h serum withdrawal, DCF fluorescence): 2.19 µM
EC50 (Nrf2-ARE pathway; CHO ARE reporter, 7-point concentration response): 1.15 µM
Fold GFP induction (Nrf2-ARE pathway; 24 h): 1.82 fold
Toxic dose (Nrf2-ARE pathway): 30 µM
NSC34 oxidative stress assay Max reduction (NSC34 cells): 7%
NSC34 oxidative stress assay Toxic dose (NSC34 cells): 10 µM

CC(COc1ccccc1)NC(C)C(O)c1ccc(O)cc1 (stereo not drawn) [Isoxsuprine hydrochloride, reference compound]
1321N1 oxidative stress assay Toxic dose [1]: none
Emax (C6 astrocyte cell line; Rattus norvegicus, Astrocyte): 40%
IC50 (C6 astrocyte cell line; Rattus norvegicus, Astrocyte): 23 µM
C6 oxidative stress assay Toxic dose (C6 astrocyte cell line): none
Toxic dose (Nrf2-ARE pathway): 100 µM
Emax (NSC34 cells): -16%
NSC34 oxidative stress assay Toxic dose (NSC34 cells): none

O=C1C=C2C=C[C@@H]3C[C@@]2(O1)[C@H]1CCCCN31 [Securinine]
Emax ([1]; Homo sapiens): 55%
IC50 [1, 3]: 18.3 µM
1321N1 oxidative stress assay Toxic dose [1]: None
Emax (C6 astrocyte cell line; Rattus norvegicus, Astrocyte): 67%
IC50 (C6 astrocyte cell line; Rattus norvegicus, Astrocyte): 0.645 µM
C6 oxidative stress assay Toxic dose (C6 astrocyte cell line): None
EC50 (Nrf2-ARE pathway; Cricetulus griseus): 2.12 µM
maximal fold induction (Nrf2-ARE pathway; Cricetulus griseus, CHO, 24 h, read-out: Fold GFP induction): 3
Toxic dose (Nrf2-ARE pathway): 30 µM
Emax (NSC34 cells): 20%
NSC34 oxidative stress assay Toxic dose (NSC34 cells): None

CCCCCc1c2c(cc(O)c1C(=O)O)OC(=O)c1c(cc(OC)cc1C(=O)CCCC)O2 [Lobaric acid]
Emax ([1]; Homo sapiens): 0%
1321N1 oxidative stress assay Toxic dose [1]: none
Emax (C6 astrocyte cell line; Rattus norvegicus, Astrocyte): 9%
IC50 (C6 astrocyte cell line; Rattus norvegicus, Astrocyte): 3.14 µM
C6 oxidative stress assay Toxic dose (C6 astrocyte cell line): none
EC50 (Nrf2-ARE pathway; Cricetulus griseus): 17 µM
Toxic dose (Nrf2-ARE pathway): 100 µM
Emax (NSC34 cells): -26%
NSC34 oxidative stress assay Toxic dose (NSC34 cells): none

CC1=C2C(=CO[C@H](C)[C@H]2C)C(O)=C(C(=O)O)C1=O [Citrinin]
Emax ([1]; Homo sapiens): 28%
IC50 [1, 3]: 0.338 µM
1321N1 oxidative stress assay Toxic dose [1]: none
Emax (C6 astrocyte cell line; Rattus norvegicus, Astrocyte): 23%
IC50 (C6 astrocyte cell line; Rattus norvegicus, Astrocyte): 20 µM
C6 oxidative stress assay Toxic dose (C6 astrocyte cell line): none
EC50 (Nrf2-ARE pathway; Cricetulus griseus): 4.1 µM
Fold GFP induction (Nrf2-ARE pathway; 24 h): 3.26 fold
Toxic dose (Nrf2-ARE pathway): 30 µM
Emax (NSC34 cells): 0%
NSC34 oxidative stress assay Toxic dose (NSC34 cells): none

COc1ccc(/C=C/C(=O)c2ccccc2)cc1 [4-Methoxychalcone]
Emax ([1]; Homo sapiens): 30%
IC50 [1, 3]: 3.6 µM
1321N1 oxidative stress assay Toxic dose [1]: None
Emax (C6 astrocyte cell line; Rattus norvegicus, Astrocyte): 82%
IC50 (C6 astrocyte cell line; Rattus norvegicus, Astrocyte): 3.55 µM
C6 oxidative stress assay Toxic dose (C6 astrocyte cell line): None
EC50 (Nrf2-ARE pathway; Cricetulus griseus): 15 µM
Fold GFP induction (Nrf2-ARE pathway; 24 h): 2.13 fold
Toxic dose (Nrf2-ARE pathway): 100 µM
Emax (NSC34 cells): 24%
NSC34 oxidative stress assay Toxic dose (NSC34 cells): None

CC1(C)C2CC(=O)O[C@@]3(C)C4=CC(=O)O[C@@H](c5ccoc5)[C@]4(C)CCC3[C@@]2(C)C=C[C@H]1O (stereo partly drawn) [Deoxyandirobin lactone]
Emax ([1]; Homo sapiens): 65%
IC50 [1, 3]: 1.64 µM
1321N1 oxidative stress assay Toxic dose [1]: None
Emax (C6 astrocyte cell line; Rattus norvegicus, Astrocyte): 38%
IC50 (C6 astrocyte cell line; Rattus norvegicus, Astrocyte): 2.87 µM
C6 oxidative stress assay Toxic dose (C6 astrocyte cell line): None
EC50 (Nrf2-ARE pathway; Cricetulus griseus): 11.1 µM
Toxic dose (Nrf2-ARE pathway): 100 µM
Emax (NSC34 cells): 0%
NSC34 oxidative stress assay Toxic dose (NSC34 cells): None

CC(=O)O[C@H]1CCC2(C)C3=C(CCC2C1(C)C)[C@@]1(C)CC[C@@H](C(C)CCC=C(C)C)[C@]1(C)CC3 (stereo partly drawn) [Euphol acetate]
1321N1 oxidative stress assay Max reduction [1]: 38%
1321N1 oxidative stress assay Toxic dose [1]: none
IC50 [1, 2]: 18 µM
C6 oxidative stress assay Max reduction (C6 astrocyte cell line): 0%
C6 oxidative stress assay Toxic dose (C6 astrocyte cell line): none
Fold GFP induction (Nrf2-ARE pathway; 24 h): 2.20 fold
Toxic dose (Nrf2-ARE pathway): 100 µM
NSC34 oxidative stress assay Max reduction (NSC34 cells): -43%
NSC34 oxidative stress assay Toxic dose (NSC34 cells): none

CC(C)(C)c1cc(O)ccc1O [tBHQ, tert-butyl hydroquinone, reference compound]
Cmax (Nrf2-ARE pathway; read-out: Cmax (concentration inducing a maximal response), CHO-4xARE-TK, 24 hours, serum free medium): 10 µM

C=CC(C1=CC(=O)C=CC1=O)c1ccccc1 (stereo not drawn) [Dalbergione]
Emax ([1]; Homo sapiens): 38%
IC50 [1, 3]: 64 µM
1321N1 oxidative stress assay Toxic dose [1]: None
Emax (C6 astrocyte cell line; Rattus norvegicus, Astrocyte): 40%
IC50 (C6 astrocyte cell line; Rattus norvegicus, Astrocyte): 46 µM
C6 oxidative stress assay Toxic dose (C6 astrocyte cell line): None
EC50 (Nrf2-ARE pathway; Cricetulus griseus): 2.47 µM
Toxic dose (Nrf2-ARE pathway): 30 µM
Emax (NSC34 cells): 0%
NSC34 oxidative stress assay Toxic dose (NSC34 cells): None
